Measurements taken from ChEMBL document CHEMBL3804798, “Design, synthesis and anti-inflammatory effects of novel 9-O-substituted-berberine derivatives” (Medchemcomm, 2016).
Active and inactive are the calls of the source. The rule behind the calls is not given here.

Assays:
RAW264.7 [1] = assay: Antiinflammatory activity against mouse RAW264.7 cells assessed as inhibition of LPS-induced NO release at 5 uM after 24 hrs by Griess assay relative to control; assay type: functional; conditions: RAW264.7, 24 h
RAW264.7 [2] = assay: Antiinflammatory activity against mouse LPS-induced RAW264.7 cells assessed as inhibition of TNFalpha production at 5 uM after 24 hrs by cytokine enzyme-linked immunosorbent assay relative to control; assay type: functional; conditions: RAW264.7, 24 h
Danio rerio [3] = species: Danio rerio; assay: Antiinflammatory activity in cut-tail neutrophil/macrophage double transgenic zebra fish larvae assessed as cut-tail-induced migration of primitive macrophages at 10 uM after 3 to 6 hrs by fluorescence microscopic analysis relative to control; assay type: functional, organism-based
[4] = Cytotoxicity against mouse RAW264.7 cells assessed as cell viability at 10 uM after 48 hrs by MTT assay relative to control; assay type: cell-based; conditions: read-out: Activity
RAW264.7 [5] = assay: Antiinflammatory activity against mouse LPS-induced RAW264.7 cells assessed as inhibition of IL-6 production at 5 uM after 24 hrs by cytokine enzyme-linked immunosorbent assay relative to control; assay type: functional, cell-based
[6] = molecular target: T1, NF-kappa-B inhibitor alpha (Mus musculus) (UniProt Q9Z1E3); assay: Inhibition of LPS stimulated IkappaBaplha phosphorylation in mouse RAW264.7 cells preincubated for 2 hrs followed by LPS stimulation for 6 hrs by Western blot analysis; assay type: cell-based
T1 sequence (whole entry): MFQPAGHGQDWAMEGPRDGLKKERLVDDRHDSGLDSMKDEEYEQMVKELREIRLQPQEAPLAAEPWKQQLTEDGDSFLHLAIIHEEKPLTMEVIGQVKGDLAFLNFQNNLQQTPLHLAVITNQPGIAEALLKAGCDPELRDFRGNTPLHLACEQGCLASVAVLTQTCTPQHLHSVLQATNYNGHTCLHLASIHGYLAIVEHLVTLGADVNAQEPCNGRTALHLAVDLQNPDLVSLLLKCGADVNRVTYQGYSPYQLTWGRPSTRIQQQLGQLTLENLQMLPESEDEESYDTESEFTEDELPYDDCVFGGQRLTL

RAW264.7 [7] = assay: Antiinflammatory activity against mouse RAW264.7 cells assessed as inhibition of LPS-induced NO release after 24 hrs by Griess assay relative to control; assay type: functional, cell-based
RAW264.7 [8] = assay: Inhibition of LPS stimulated iNOS expression in mouse RAW264.7 cells preincubated for 2 hrs followed by LPS stimulation for 6 hrs by Western blot analysis; assay type: functional, cell-based
Danio rerio [9] = species: Danio rerio; assay: Antiinflammatory activity in cut-tail neutrophil/macrophage double transgenic zebra fish larvae assessed as cut-tail-induced reduction in neutrophil level in wound site at 10 uM after 3 to 9 hrs by fluorescence microscopic analysis relative to control; assay type: functional, organism-based
Danio rerio [10] = species: Danio rerio; assay: Antiinflammatory activity in cut-tail neutrophil/macrophage double transgenic zebra fish larvae assessed as cut-tail-induced reduction in migration of primitive macrophages at 10 uM after 9 hrs by fluorescence microscopic analysis relative to control; assay type: functional, organism-based
[11] = Cytotoxicity against mouse RAW264.7 cells assessed as cell viability at 5 uM after 48 hrs by MTT assay relative to control; assay type: cell-based; conditions: read-out: Activity

SMILES | inhibition at 5 µM (RAW264.7 [1]) [%] | viability at 48 h, 10 µM [4] [%] | viability at 48 h, 5 µM [11] [%] | further results
COc1ccc2cc3[n+](cc2c1OCCCN1CCN(c2ccncc2)CC1)CCc1cc2c(cc1-3)OCO2 | 30.2 | 100 | 103 | inhibition at 5 µM (RAW264.7 [2]): 90%; Activity (Danio rerio [3]): inactive; inhibition (RAW264.7 [5]): Active; inhibition [6]: Dose-dependent effect; inhibition (RAW264.7 [7]): Dose-dependent effect; inhibition (RAW264.7 [8]): Dose-dependent effect; Activity (Danio rerio [9]): Active; Activity (Danio rerio [10]): Active
C=CCN(CC=C)C(=O)Oc1c(OC)ccc2cc3[n+](cc12)CCc1cc2c(cc1-3)OCO2 | – | 92.2 | 100 | –
COc1ccc2cc3[n+](cc2c1OC(=O)N(C)C1CCCCC1)CCc1cc2c(cc1-3)OCO2 | 70.3 | 83.2 | 99.3 | inhibition at 5 µM (RAW264.7 [2]): 70%; Activity (Danio rerio [3]): inactive; inhibition (RAW264.7 [5]): Active; inhibition [6]: Dose-dependent effect; inhibition (RAW264.7 [7]): Dose-dependent effect; inhibition (RAW264.7 [8]): Dose-dependent effect; Activity (Danio rerio [9]): Active; Activity (Danio rerio [10]): Active
COc1ccc2cc3[n+](cc2c1OC(=O)N1CCN(C2CCN(C)CC2)CC1)CCc1cc2c(cc1-3)OCO2 | – | 102 | 107 | –
COc1ccc2cc3[n+](cc2c1OC(=O)N1CCOCC1)CCc1cc2c(cc1-3)OCO2 | – | 96 | 105 | –
COc1ccc2cc3[n+](cc2c1OC(=O)N1CCN(c2ncccn2)CC1)CCc1cc2c(cc1-3)OCO2 | – | 97.6 | 102 | –
CCOC(=O)N1CCN(CCCOc2c(OC)ccc3cc4[n+](cc23)CCc2cc3c(cc2-4)OCO3)CC1 | – | 99.1 | 103 | –
CCOC(=O)N1CCN(C(=O)Oc2c(OC)ccc3cc4[n+](cc23)CCc2cc3c(cc2-4)OCO3)CC1 | 9.7 | 99.6 | 97.9 | –
CCOC(=O)C1CCN(CCCOc2c(OC)ccc3cc4[n+](cc23)CCc2cc3c(cc2-4)OCO3)CC1 | – | 99.5 | 98.5 | –
COc1ccc2cc3[n+](cc2c1OC(=O)N1CCSCC1)CCc1cc2c(cc1-3)OCO2 | – | 109 | 96 | –
COc1ccc2cc3[n+](cc2c1OC(=O)N1CCC(Cc2ccccc2)CC1)CCc1cc2c(cc1-3)OCO2 | – | 87.9 | 97.6 | –
COc1ccc2c(c1)c(CC(=O)O)c(C)n2C(=O)c1ccc(Cl)cc1 [INDOMETHACIN] | 20.8 | 99.6 | 99.8 | –
COc1ccc2cc3[n+](cc2c1OC(=O)N1CCC(N2CCN(C)CC2)CC1)CCc1cc2c(cc1-3)OCO2 | – | 104 | 101 | –
COc1ccc2cc3[n+](cc2c1OC(=O)N1CCN(c2ccccn2)CC1)CCc1cc2c(cc1-3)OCO2 | 12.9 | 109 | 103 | –
COc1ccc2cc3[n+](cc2c1OC(=O)N1CCC(N2CCCCC2)CC1)CCc1cc2c(cc1-3)OCO2 | – | 100 | 98.1 | –
COc1ccc2cc3[n+](cc2c1OC)CCc1cc2c(cc1-3)OCO2 [BERBERINE CHLORIDE] | 21.1 | 97.2 | 99.4 | –
CCCN(CCC)C(=O)Oc1c(OC)ccc2cc3[n+](cc12)CCc1cc2c(cc1-3)OCO2 | – | 93.9 | 101 | –
